Like-named read-outs stand apart in the source and are kept apart here.
Legend:
5637 = experiment: CellTiter-Glo cytotoxicity assay, single agents (Stage 1); assay type: cell-based; conditions: CTG assay 72 h
Method: (§1) A2780, SK-OV-3, OVCAR-3, NCI-H460, NCI-H1975, NCI-H2122, 5637 and HT1376 were cultured in RPMI Medium 1640 (Invitrogen-22400105) supplemented with 10% fetal bovine serum (FBS; Invitrogen-10099141). All the cell lines were maintained in a humidified incubator at 37° C. with 5% CO2. Cell culture media and supplements were purchased from Invitrogen, and tissue culture flasks were purchased from Corning, 96-well plates and 384-well plates were purchased from Greiner. CellTiter-Glo Luminescent Cell Viability Assay kits were purchased from Promega (Promega-G7573), cells counter Vi-Cell was purchased from Beckman, detection instrument Envision was purchased from PerkinElmer.
(§2) Paclitaxcel (used as a reference) and cisplatin were purchased from SELLECK, and they were of highest purity available. All compounds attained solubility in DMSO and when diluted into culture media. DMSO, compounds solutions and culture media were warmed to 37° C. for the solution preparation and dilutions.
(§3) Eight cell lines were allowed to adhere to 96-well plates overnight (100 μL/well), for drug treatments with 3.16 fold dilution, 9 dose points, triplicates or vehicle control, compound stock solutions were prepared in DMSO and added to the wells to give the indicated final drug concentrations. Final DMSO concentration was 0.5%. Cellular ATP concentrations were assessed by using the CellTiter-Glo Cell Viability Assay as per the manufacturer's instructions 72 h after drug addition.
(§4) In Stage 1 the IC50 (using 5 or more concentrations) of each individual compound (cisplatin, gemcitabine and NUC-1031) in the relevant cell lines was determined.

A2780 = experiment: as above; assay type: cell-based; conditions: CTG assay 72 h; for IC50: Homo sapiens
Method: as §1, §2, §3, §4

HT1376 = experiment: as above; assay type: cell-based; conditions: for IC50: Homo sapiens, HT-1376, CTG assay 72 h
Method: as §1, §2, §3, §4

NCI-H1975 = experiment: as above; assay type: cell-based; conditions: CTG assay 72 h; for IC50: Homo sapiens
Method: as §1, §2, §3, §4

NCI-H460 = experiment: as above; assay type: cell-based; conditions: CTG assay 72 h; for IC50: Homo sapiens
Method: as §1, §2, §3, §4

OVCAR-3 = experiment: as above; assay type: cell-based; conditions: CTG assay 72 h; for IC50: Homo sapiens
Method: as §1, §2, §3, §4

SK-OV3 = experiment: as above; assay type: cell-based; conditions: for IC50: Homo sapiens, SK-OV-3, CTG assay 72 h
Method: as §1, §2, §3, §4

[1] = ProGem1 clinical study (NUC-1031 alone), plasma pharmacokinetics; assay type: in vivo, human
From the text: (§5) ProGem1 was a first-time-in-human (FTIH), phase I, open label, two stage study to investigate the safety, tolerability, clinical efficacy, pharmacokinetics (PK) and pharmacodynamics (PD) of NUC-1031 given in two parallel dosing schedules in subjects with advanced solid malignancies (EudraCT Number: 2011-005232-26). Subjects had the following tumour types at study entry: colorectal cancer (7 subjects), unknown primary (3), ovarian cancer (12), breast cancer (4), pancreatic cancer (9), cholangiocarcinoma (7), endometrial cancer (3), cervical cancer (2), lung cancer (7), mesothelioma (3), oesophageal cancer (3), cancer of the fallopian tube (1), trophoblast (1), renal cancer (1), gastric cancer (1), anal cancer (1), cancer of the thymus (1) and osteosarcoma (1).

[2] = ABC-008 clinical study (NUC-1031 in combination with cisplatin), plasma pharmacokinetics; assay type: in vivo, human
Method: Initial pharmacokinetic analysis was conducted on samples obtained from the first three patients on the ABC-008 clinical study.
Patient 1: —Metastatic Biliary Tract Carcinoma—Starting dose: 625 mg/m^2 (S)-NUC-1031+25 mg/m^2 cisplatin
Patient 2: —Metastatic Biliary Tract Carcinoma—Starting dose: 625 mg/m^2 (S)-NUC-1031+25 mg/m^2 cisplatin
Patient 3: —Metastatic Biliary Tract Carcinoma—Starting dose: 625 mg/m^2 (S)-NUC-1031+25 mg/m^2 cisplatin
Both NUC-1031 and cisplatin were administered on days 1 and 8 of a 21 day cycle.
An appropriate dosage of 625 mg/m^2 of NUC-1031 was prepared in a Luerlock syringe. The dosage given was based on the subject's height and weight using a standard body surface area (BSA) calculation. A polyethylene extension line was primed with up to 1.5 ml of Flushing Solution, prior to connecting the syringe containing NUC-1031 to the extension line.
The extension line was connected to the patient's Central Venous Access Device (CVAD), and NUC-1031 was injected at a rate of 20 ml/hour using a syringe pump.
Once the injection was complete the NUC-1031 syringe was disconnected from the extension line, and the extension line was then flushed with an additional volume of up to 3 ml of Flushing solution.

[3] = ProGem1 clinical study (NUC-1031 alone), intracellular dFdCTP pharmacokinetics; assay type: in vivo, human; conditions: ProGem1 (n = 67), NUC-1031 as a single agent; no normalisation
From the text: as §5

[4] = absolute IC50, read-out: Ab IC50
[5] = ABC-008 (with cisplatin) compared to ProGem1 (single agent NUC-1031)

With `C[C@H](NP(=O)(OC[C@H]1O[C@@H](n2ccc(N)nc2=O)C(F)(F)[C@H]1O)Oc1ccccc1)C(=O)OCc1ccccc1` (stereo partly drawn) [NUC-1031, 2′-Deoxy-2′,2′-difluoro-D-cytidine-5′-O-[phenyl (benzoxy-L-alaninyl)] phosphate] the “Max Inhibition_%” value 5637 was 77.88%, the IC50 5637; [4] was 200 nM and the IC50 (5637; relative IC50, read-out: IC50) was 120 nM. For the same molecule, the “Max Inhibition_%” value (A2780) was 79.15%, the IC50 (A2780; [4]) was 25 nM and the IC50 (A2780; relative IC50, read-out: IC50) was 16 nM. The “Max Inhibition_%” value (HT1376; CTG assay 72 h) was −2.54%, the IC50 (HT1376; [4]) was greater than 1980 nM and the IC50 (HT1376; relative IC50, read-out: IC50) was greater than 1980 nM. For the same molecule, the “Max Inhibition_%” value (NCI-H1975) was 37.91%, the IC50 (NCI-H1975; [4]) was greater than 1980 nM and the IC50 (NCI-H1975; relative IC50, read-out: IC50) was 370 nM. The “Max Inhibition_%” value (NCI-H460) was 91.98%, the IC50 (NCI-H460; [4]) was 40 nM and the IC50 (NCI-H460; relative IC50, read-out: IC50) was 40 nM. The “Max Inhibition_%” value (OVCAR-3) was 11.76%, the IC50 (OVCAR-3; [4]) was greater than 1980 nM and the IC50 (OVCAR-3; relative IC50, read-out: IC50) was 200 nM. The “Max Inhibition_%” value (SK-OV3; CTG assay 72 h) was 61.59%, the IC50 (SK-OV3; [4]) was 70 nM and the IC50 (SK-OV3; relative IC50, read-out: IC50) was 60 nM. For the same molecule, the “levels of the metabolite dFdU relative to gemcitabine” value ([1]; ProGem1, compared with levels normally associated with gemcitabine) was “less than half”, the clearance ([1]; human, plasma, ProGem1 (n = 67), NUC-1031 as a single agent) was 86.7 mL/min and the Cmax ([1]; human, plasma, ProGem1 (n = 67), NUC-1031 as a single agent, no normalisation) was 66.5 µg/mL. The AUC(0-t) ([1]; human, plasma, ProGem1 (n = 67), NUC-1031 as a single agent, no normalisation, read-out: Mean AUC0-24, plasma NUC-1031) was 66500 ng·h/mL, the half-life ([1]; human, plasma, ProGem1 (n = 67), NUC-1031 as a single agent, read-out: Mean terminal t1/2, plasma NUC-1031 (converted)) was 54 min and the Tmax ([1]; human, plasma, ProGem1 (n = 67), NUC-1031 as a single agent, read-out: Median Tmax, plasma NUC-1031) was 30 min. The “AUC increase, NUC-1031 plasma” value [2, 5] was 2.1 fold, the “Cmax increase, NUC-1031 plasma” value [2, 5] was 1.9 fold and the “increase in half-life, NUC-1031 plasma PK parameters” value ([2]; ABC-008 (with cisplatin) compared to single agent NUC-1031) was 3.6 fold. The “Mean AUC0-24, intracellular dFdCTP” value [3] was 1379.0 pmol/million cells · hr and the “Mean Cmax, intracellular dFdCTP” value [3] was 391.8 pmol/million cells.
